# Tested on: bacteria in clinical bovine mastitis milk samples
# Assay: Combined bacteria identification and antimicrobial susceptibility test (colour of wells, MIC) on clinical bovine mastitis milk samples
# Assay type: cell-based
# Procedure: Clinical bovine mastitis milk samples were collected by a vet clinic in South Island, New Zealand. Samples were stored in the freezer for several months and shipped frozen to the testing facility. In this Example, the term “clinical” means that dairy cows had clinical symptoms of an udder infection e.g. cow behaved unusual, milk clots, swollen udder among other typical symptoms. Testing was executed in microwell plate comprising of 24 wells (3×8 wells).
# In addition, 20 ul of clinical mastitis sample was added to each well with a laboratory pipette.
# (§1) Abbreviations • 1. 80 ul GC+10 ul Tell: 80 ul Giolitti Cantoni base broth+10 ul Tellurite solution (1%); • 2. 80 ul TSB/Esc/Fer Cit: 80 ul Tryptic soy broth containing 0.25% Esculin and 0.125% Ammonium Ferric Citrate; • 3. 80 ul TSB/Esc/Fer Cit+10 ul Genta: 80 ul Tryptic soy broth containing 0.25% Esculin and 0.125% Ammonium Ferric Citrate+10 ul of Gentamycin solution 10 mg/ml; • 4. 80 ul McC/PR25: 80 ul MacConkey broth (single strength) containing 0.0125% phenol red; and • 5. 80 ul TSB/PR25: 80 ul Tryptic soy broth containing 0.0125% phenol red. Bacteria Identification
# Columns A to C and rows 1 and 2 were used for bacteria identification. A1: coagulase positive Staph; A2: Staphylococci; B1: Strep group D; B2: Strep group D; C1: general enrichment media (gram+ and gram-bacteria); C2: coliform bacteria.
# Column A3 to A8: serial dilution of benzyl penicillin as potassium. Column B3 to B8: serial dilution of ceftiofur as hydrochloride. Column C3 to C8: serial dilution of cloxacillin as sodium. Antibiotic concentrations are listed as free form ranging between 4 ug/ml to 0.05 ug/ml.
# Minimum inhibitory substance concentration (MIC) is here defined as the concentration if a colour change occurs between two wells (one well remains red with drug concentration 1, the other one yellow with drug concentration 2, whereas drug concentration 1 is larger than drug concentration 2) then the MIC is the value of drug concentration 1.
# Table 21 indicates the microwell plate configuration #1; Drugs: Benzylpenicillin as potassium; Cloxacillin as sodium; Ceftiofur as hydrochloride; Drug concentration in each well (A3 to C8) is based on 80 μl composition+10 μl drug solution+20 μl clinical mastitis milk sample and equivalent to listed drug concentration in μg/ml; 20 ul of clinical bovine mastitis milk sample was added to each well (A1 to C8).
# In addition, each well received one drop of clinical sample from a transfer pipette which was on average about 35 mg. This was determined through weighing the well plate prior and after the addition of clinical mastitis samples. This weight was then divided by 24.
# as §1, with “•” for “Abbreviations •”, “red.” for “red. Bacteria Identification”
# Columns A to C and rows 1 and 2 were used for bacteria identification. A1: coagulase positive Staph; A2: Staphylococci; B1: Strep Group D; B2: -; C1: general enrichment media (gram+ and gram-); C2: coliform bacteria.
# Column A3 to A8: serial dilution of benzyl penicillin as potassium. Drug concentrations given as free form ranging between 4 ug/ml to 0.05 ug/ml. Column B3 to B8: serial dilution of ceftiofur as hydrochloride. Drug concentrations given as free form ranging between 4 ug/ml to 0.05 ug/ml. Column C3 to C8: serial dilution of cloxacillin as sodium. Drug concentrations given as free form ranging between 4 ug/ml to 0.05 ug/ml.
smiles,measurement,setting,value
Cc1onc(-c2ccccc2Cl)c1C(=O)N[C@@H]1C(=O)N2[C@@H]1SC(C)(C)[C@@H]2C(=O)O [cloxacillin],Colour of media in each well,"ID 1, T = 22 h, 37° C., plate configuration #1, drug 0.05 μg/ml",yellow
same,Colour of media in each well,"ID 1, T = 22 h, 37° C., plate configuration #1, drug 0.1 μg/ml",yellow
same,Colour of media in each well,"ID 1, T = 22 h, 37° C., plate configuration #1, drug 0.5 μg/ml",red
same,Colour of media in each well,"ID 1, T = 22 h, 37° C., plate configuration #1, drug 1 μg/ml",red
same,Colour of media in each well,"ID 1, T = 22 h, 37° C., plate configuration #1, drug 2 μg/ml",red
same,Colour of media in each well,"ID 1, T = 22 h, 37° C., plate configuration #1, drug 4 μg/ml",red
same,Colour of media in each well,"ID 2, T = 48 h, 37° C., plate configuration #1, drug 0.05 μg/ml",yellow
same,Colour of media in each well,"ID 2, T = 48 h, 37° C., plate configuration #1, drug 0.1 μg/ml",yellow
same,Colour of media in each well,"ID 2, T = 48 h, 37° C., plate configuration #1, drug 0.5 μg/ml",red
same,Colour of media in each well,"ID 2, T = 48 h, 37° C., plate configuration #1, drug 1 μg/ml",red
same,Colour of media in each well,"ID 2, T = 48 h, 37° C., plate configuration #1, drug 2 μg/ml",red
same,Colour of media in each well,"ID 2, T = 48 h, 37° C., plate configuration #1, drug 4 μg/ml",red
same,Colour of media in each well,"ID 3, T = 22 h, 37° C., plate configuration #1, drug 0.05 μg/ml",yellow
same,Colour of media in each well,"ID 3, T = 22 h, 37° C., plate configuration #1, drug 0.1 μg/ml",yellow
same,Colour of media in each well,"ID 3, T = 22 h, 37° C., plate configuration #1, drug 0.5 μg/ml",red
same,Colour of media in each well,"ID 3, T = 22 h, 37° C., plate configuration #1, drug 1 μg/ml",red
same,Colour of media in each well,"ID 3, T = 22 h, 37° C., plate configuration #1, drug 2 μg/ml",yellow
same,Colour of media in each well,"ID 3, T = 22 h, 37° C., plate configuration #1, drug 4 μg/ml",yellow
same,Colour of media in each well,"ID 3, T = 23 h, 37° C., Table 34, drug 0.05 μg/ml",yellow
same,Colour of media in each well,"ID 3, T = 23 h, 37° C., Table 34, drug 0.1 μg/ml",yellow
same,Colour of media in each well,"ID 3, T = 23 h, 37° C., Table 34, drug 0.5 μg/ml",red
same,Colour of media in each well,"ID 3, T = 23 h, 37° C., Table 34, drug 1 μg/ml",red
same,Colour of media in each well,"ID 3, T = 23 h, 37° C., Table 34, drug 2 μg/ml",yellow
same,Colour of media in each well,"ID 3, T = 23 h, 37° C., Table 34, drug 4 μg/ml",yellow
same,Colour of media in each well,"ID 3, T~7 h, 37° C., Table 34, drug 0.05 μg/ml",red
same,Colour of media in each well,"ID 3, T~7 h, 37° C., Table 34, drug 0.1 μg/ml",red
same,Colour of media in each well,"ID 3, T~7 h, 37° C., Table 34, drug 0.5 μg/ml",red
same,Colour of media in each well,"ID 3, T~7 h, 37° C., Table 34, drug 1 μg/ml",red
same,Colour of media in each well,"ID 3, T~7 h, 37° C., Table 34, drug 2 μg/ml",red
same,Colour of media in each well,"ID 3, T~7 h, 37° C., Table 34, drug 4 μg/ml",red
same,Colour of media in each well,"ID 3, T~11 h, 37° C., Table 34, drug 0.05 μg/ml",red
same,Colour of media in each well,"ID 3, T~11 h, 37° C., Table 34, drug 0.1 μg/ml",red
same,Colour of media in each well,"ID 3, T~11 h, 37° C., Table 34, drug 0.5 μg/ml",red
same,Colour of media in each well,"ID 3, T~11 h, 37° C., Table 34, drug 1 μg/ml",red
same,Colour of media in each well,"ID 3, T~11 h, 37° C., Table 34, drug 2 μg/ml",red
same,Colour of media in each well,"ID 3, T~11 h, 37° C., Table 34, drug 4 μg/ml",red
same,Colour of media in each well,"ID 4, T = 22 h, 37° C., plate configuration #1, drug 0.05 μg/ml",yellow
same,Colour of media in each well,"ID 4, T = 22 h, 37° C., plate configuration #1, drug 0.1 μg/ml",yellow
same,Colour of media in each well,"ID 4, T = 22 h, 37° C., plate configuration #1, drug 0.5 μg/ml",red
same,Colour of media in each well,"ID 4, T = 22 h, 37° C., plate configuration #1, drug 1 μg/ml",red
same,Colour of media in each well,"ID 4, T = 22 h, 37° C., plate configuration #1, drug 2 μg/ml",red
same,Colour of media in each well,"ID 4, T = 22 h, 37° C., plate configuration #1, drug 4 μg/ml",red
same,Colour of media in each well,"ID 5, T = 23 h, 37° C., plate configuration #2, drug 0.05 μg/ml",yellow
same,Colour of media in each well,"ID 5, T = 23 h, 37° C., plate configuration #2, drug 0.1 μg/ml",yellow
same,Colour of media in each well,"ID 5, T = 23 h, 37° C., plate configuration #2, drug 0.5 μg/ml",red
same,Colour of media in each well,"ID 5, T = 23 h, 37° C., plate configuration #2, drug 1 μg/ml",red
same,Colour of media in each well,"ID 5, T = 23 h, 37° C., plate configuration #2, drug 2 μg/ml",red
same,Colour of media in each well,"ID 5, T = 23 h, 37° C., plate configuration #2, drug 4 μg/ml",red
same,Colour of media in each well,"ID 5 to 8, T = 0 h (prior incubation, reference), plate configuration #2, drug 0.05 μg/ml",red
same,Colour of media in each well,"ID 5 to 8, T = 0 h (prior incubation, reference), plate configuration #2, drug 0.1 μg/ml",red
same,Colour of media in each well,"ID 5 to 8, T = 0 h (prior incubation, reference), plate configuration #2, drug 0.5 μg/ml",red

# — US10829796B2, “Bacteria identification and antimicrobial susceptibility test” (priority 2015, dated 2020)
